Results from PubChem BioAssay AID1963836 (Molecular Pharmacology Branch, DTP, NCI, 2024).

Tested on: 857933-349-R-J2-PDC complex spheroid viability
Assay: Anticancer human tumor 857933-349-R-J2-PDC patient-derived colon adenocarcinoma cell line growth inhibition [POLQ]
Conditions: for IC50: curve of first compound; for viability, T/C: stronger effect = lower value
Outline: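 Growth inhibition in 3D: complex spheroids (tumor PDC, HUVEC, MSC) treated with POLQ inhibitor combinations; where Cmax unknown, highest tested concentration 10 microM, except SN-38 at 1 microM.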

[1] = second compound 0.0316 µM, first compound 0.0316 µM
[2] = second compound 0.0316 µM, first compound 0.1 µM
[3] = second compound 0.0316 µM, first compound 0.316 µM
[4] = second compound 0.0316 µM, first compound 1 µM
[5] = second compound 0.0316 µM, first compound 3.16 µM
[6] = second compound 0.0316 µM, first compound 10 µM
[7] = second compound 0.1 µM, first compound 0.0316 µM
[8] = second compound 0.1 µM, first compound 0.1 µM
[9] = second compound 0.1 µM, first compound 0.316 µM
[10] = second compound 0.1 µM, first compound 1 µM
[11] = second compound 0.1 µM, first compound 3.16 µM
[12] = second compound 0.1 µM, first compound 10 µM
[13] = second compound 0.316 µM, first compound 0.0316 µM
[14] = second compound 0.316 µM, first compound 0.1 µM
[15] = second compound 0.316 µM, first compound 0.316 µM
[16] = second compound 0.316 µM, first compound 1 µM
[17] = second compound 0.316 µM, first compound 3.16 µM
[18] = second compound 0.316 µM, first compound 10 µM
[19] = second compound 1 µM, first compound 0.0316 µM
[20] = second compound 1 µM, first compound 0.1 µM
[21] = second compound 1 µM, first compound 0.316 µM
[22] = second compound 1 µM, first compound 1 µM
[23] = second compound 1 µM, first compound 3.16 µM
[24] = second compound 1 µM, first compound 10 µM
[25] = second compound 3.16 µM, first compound 0.0316 µM
[26] = second compound 3.16 µM, first compound 0.1 µM
[27] = second compound 3.16 µM, first compound 0.316 µM
[28] = second compound 3.16 µM, first compound 1 µM
[29] = second compound 3.16 µM, first compound 3.16 µM
[30] = second compound 3.16 µM, first compound 10 µM
[31] = second compound 10 µM, first compound 0.0316 µM
[32] = second compound 10 µM, first compound 0.1 µM
[33] = second compound 10 µM, first compound 0.316 µM
[34] = second compound 10 µM, first compound 1 µM
[35] = second compound 10 µM, first compound 3.16 µM
[36] = second compound 10 µM, first compound 10 µM
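Note: spheroids exposed to compounds for seven days before readout.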

## C=CC(=O)N1CCN(c2nc(=O)n(-c3c(C)ccnc3C(C)C)c3nc(-c4c(O)cccc4F)c(F)cc23)C(C)C1 (stereo unspecified) + Cc1cccc(N(C)C(=O)C2C(O)CCN2c2nc(C)cc(C(F)(F)F)c2C#N)c1
Second compound 0.0316 µM
  IC50: > 10 µM
Second compound 0.1 µM
  IC50: > 10 µM
Second compound 0.316 µM
  IC50: > 10 µM
Second compound 1 µM
  IC50: > 10 µM
Second compound 3.16 µM
  IC50: > 10 µM
Second compound 10 µM
  IC50: > 10 µM
[1]
  viability, T/C: 101%
[2]
  viability, T/C: 104%
[3]
  viability, T/C: 94.8%
[4]
  viability, T/C: 113%
[5]
  viability, T/C: 97.2%
[6]
  viability, T/C: 80.5%
[7]
  viability, T/C: 114%
[8]
  viability, T/C: 106%
[9]
  viability, T/C: 73%
[10]
  viability, T/C: 112%
[11]
  viability, T/C: 98.9%
[12]
  viability, T/C: 85.3%
[13]
  viability, T/C: 91.1%
[14]
  viability, T/C: 100%
[15]
  viability, T/C: 109%
[16]
  viability, T/C: 87.4%
[17]
  viability, T/C: 84.4%
[18]
  viability, T/C: 70%
[19]
  viability, T/C: 95.3%
[20]
  viability, T/C: 95.2%
[21]
  viability, T/C: 89.3%
[22]
  viability, T/C: 101%
[23]
  viability, T/C: 113%
[24]
  viability, T/C: 97.9%
[25]
  viability, T/C: 76.5%
[26]
  viability, T/C: 106%
[27]
  viability, T/C: 109%
[28]
  viability, T/C: 84%
[29]
  viability, T/C: 99.8%
[30]
  viability, T/C: 95.2%
[31]
  viability, T/C: 88.7%
[32]
  viability, T/C: 84.2%
[33]
  viability, T/C: 101%
[34]
  viability, T/C: 85.9%
[35]
  viability, T/C: 91.8%
[36]
  viability, T/C: 77.7%

## C=CCn1c(=O)c2cnc(Nc3ccc(N4CCN(C)CC4)cc3)nc2n1-c1cccc(C(C)(C)O)n1 + COC1C(OC(N)=O)C(O)C(Oc2ccc3c(O)c(NC(=O)c4ccc(O)c(CC=C(C)C)c4)c(=O)oc3c2C)OC1(C)C
Second compound 0.0316 µM
  IC50: > 1 µM
Second compound 0.1 µM
  IC50: > 1 µM
Second compound 0.316 µM
  IC50: > 1 µM
Second compound 1 µM
  IC50: > 1 µM
Second compound 3.16 µM
  IC50: > 1 µM
Second compound 10 µM
  IC50: > 1 µM
Second compound 0.0316 µM, first compound 0.00316 µM
  viability, T/C: 89.8%
Second compound 0.0316 µM, first compound 0.01 µM
  viability, T/C: 96.5%
[1]
  viability, T/C: 76.7%
[2]
  viability, T/C: 81.7%
[3]
  viability, T/C: 84.6%
[4]
  viability, T/C: 80.9%
Second compound 0.1 µM, first compound 0.00316 µM
  viability, T/C: 97.9%
Second compound 0.1 µM, first compound 0.01 µM
  viability, T/C: 106%
[7]
  viability, T/C: 112%
[8]
  viability, T/C: 89.4%
[9]
  viability, T/C: 74.3%
[10]
  viability, T/C: 64.7%
Second compound 0.316 µM, first compound 0.00316 µM
  viability, T/C: 92.4%
Second compound 0.316 µM, first compound 0.01 µM
  viability, T/C: 95.3%
[13]
  viability, T/C: 91%
[14]
  viability, T/C: 78.8%
[15]
  viability, T/C: 79.2%
[16]
  viability, T/C: 64.1%
Second compound 1 µM, first compound 0.00316 µM
  viability, T/C: 102%
Second compound 1 µM, first compound 0.01 µM
  viability, T/C: 80.4%
[19]
  viability, T/C: 88.7%
[20]
  viability, T/C: 87.3%
[21]
  viability, T/C: 95.8%
[22]
  viability, T/C: 61.8%
Second compound 3.16 µM, first compound 0.00316 µM
  viability, T/C: 92%
Second compound 3.16 µM, first compound 0.01 µM
  viability, T/C: 86.6%
[25]
  viability, T/C: 74.6%
[26]
  viability, T/C: 74.2%
[27]
  viability, T/C: 91.1%
[28]
  viability, T/C: 77.5%
Second compound 10 µM, first compound 0.00316 µM
  viability, T/C: 83.8%
Second compound 10 µM, first compound 0.01 µM
  viability, T/C: 86.8%
[31]
  viability, T/C: 91.8%
[32]
  viability, T/C: 72.5%
[33]
  viability, T/C: 83.9%
[34]
  viability, T/C: 67.5%

## O=C(c1cc(Cc2n[nH]c(=O)c3ccccc23)ccc1F)N1CCN(C(=O)C2CC2)CC1 + COC1C(OC(N)=O)C(O)C(Oc2ccc3c(O)c(NC(=O)c4ccc(O)c(CC=C(C)C)c4)c(=O)oc3c2C)OC1(C)C
Second compound 0.0316 µM
  IC50: > 10 µM
Second compound 0.1 µM
  IC50: > 10 µM
Second compound 0.316 µM
  IC50: > 10 µM
Second compound 1 µM
  IC50: > 10 µM
Second compound 3.16 µM
  IC50: > 10 µM
Second compound 10 µM
  IC50: > 10 µM
[1]
  viability, T/C: 125%
[2]
  viability, T/C: 126%
[3]
  viability, T/C: 90.8%
[4]
  viability, T/C: 100%
[5]
  viability, T/C: 109%
[6]
  viability, T/C: 84.1%
[7]
  viability, T/C: 94%
[8]
  viability, T/C: 130%
[9]
  viability, T/C: 94.4%
[10]
  viability, T/C: 88.2%
[11]
  viability, T/C: 102%
[12]
  viability, T/C: 79.3%
[13]
  viability, T/C: 123%
[14]
  viability, T/C: 123%
[15]
  viability, T/C: 112%
[16]
  viability, T/C: 115%
[17]
  viability, T/C: 92.9%
[18]
  viability, T/C: 97%
[19]
  viability, T/C: 93.4%
[20]
  viability, T/C: 103%
[21]
  viability, T/C: 87.1%
[22]
  viability, T/C: 91.2%
[23]
  viability, T/C: 104%
[24]
  viability, T/C: 104%
[25]
  viability, T/C: 92.8%
[26]
  viability, T/C: 96.8%
[27]
  viability, T/C: 96.3%
[28]
  viability, T/C: 81.6%
[29]
  viability, T/C: 96.1%
[30]
  viability, T/C: 86.5%
[31]
  viability, T/C: 84.5%
[32]
  viability, T/C: 121%
[33]
  viability, T/C: 79.3%
[34]
  viability, T/C: 82.7%
[35]
  viability, T/C: 120%
[36]
  viability, T/C: 90%
